Each molecule was assayed on Passive cutaneous anaphylaxis (P.C.A.) (assay: Inhibition of passive cutaneous anaphylaxis (P.C.A.)). Conditions: Rattus norvegicus, 1 h; rats, 2 × 10^-5 mol/kg p.o., one hour before ovalbumin challenge.
Type: in vivo, rat (Sprague-Dawley)
Summary of the method: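 Sprague-Dawley rats (150-180 g) were sensitized intradermally with rat IgE-rich anti-ovalbumin serum and challenged 24 h later with i.v. ovalbumin 8.25 mg/kg plus Evans blue. Compound was given orally at 2×10^-5 mol/kg 1 h before challenge. Dye exudation was scored visually at 30 min as % inhibition versus vehicle controls.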

In order of rising inhibition in vivo at 20 µmol/kg:
1. Cc1ccnc(N2CCN(CCc3c(-c4ccc(OCCCCO)cc4)n4c5c(cccc35)CCC4)CC2)c1 [Example 12, 2-[4-(4-Hydroxybutyloxy)-phenyl]-1-{2-[4-(4-methylpyridin-2-yl)piperazin-1-yl]ethyl}-5,6-dihydro-4H-pyrrolo[3,2,1-ij]quinoline]  25%
2. Cc1ccnc(N2CCN(CCc3c(-c4ccc(F)cc4)n4c5c(cccc35)CCC4)CC2)c1 [Example 47]  50%
3. CCCCCCCC1CCc2cccc3c(CCN4CCN(c5cc(C)ccn5)CC4)c(C)n1c23 (centres unmarked) [Example 4, 4-n-heptyl-5,6-dihydro-2-methyl-1-{2-[4-(4-methylpyridin-2-yl)piperazin-1-yl]ethyl}-4H-pyrrolo[3,2,1-ij]-quinoline]  55%
4. CC(=O)Oc1cc2c3c(c1)c(CCN1CCN(c4cc(C)ccn4)CC1)c(C)n3CCC2 [Example 24, 8-Acetoxy-5,6-dihydro-2-methyl-1-{2-[4-(4-methyl-pyridin-2-yl)piperazin-1-yl]ethyl}-4H-pyrrolo[3,2,1-ij]quinoline]  55%
5. Cc1ccnc(N2CCN(CCc3c(C)n4c5c(cc(Cc6ccccc6)cc35)CCC4)CC2)c1 [Example 77]  60%
6. Cc1c(CCN2CCN(c3ccccn3)CC2)c2cccc3c2n1CCC3 [Example 37]  60%
7. COc1ccc(-c2c(CCN3CCN(c4cc(C)ccn4)CC3)c3cccc4c3n2CCC4)cc1 [Example 7, 2-(4-methoxy-phenyl)-1-{2-[4-(4-methylpyridin-2-yl)piperazin-1-yl]ethyl}-5,6-dihydro-4H-pyrrolo[3,2,1-ij]quinoline]  75%
8. Cc1ccnc(N2CCN(CCc3c(C)n4c5c(cc(C(=O)c6ccccc6)cc35)CCC4)CC2)c1 [Example 66]  80%
9. Cc1ccnc(N2CCN(CCc3c(C)n4c5c(ccc(C(O)C(C)C)c35)SCC4)CC2)c1 (centres unmarked) [Example 90]  81%
10. Cc1ccnc(N2CCN(CCc3c(C)n4c5c(cc([N+](=O)[O-])cc35)CCC4)CC2)c1 [Example 10, 2-Methyl-8-nitro-1-{2-[4-(4-methylpyridin-2-yl)-piperazin-1-yl]ethyl}-5,6-dihydro-4H-pyrrolo[3,2,1-ij]quinoline]  83%
11. CCc1c(CCN2CCN(c3cc(C)ccn3)CC2)c2cccc3c2n1CCC3 [Example 15, 2-Ethyl-5,6-dihydro-1-{2-[4-(4-methylpyridin-2-yl)piperazin-1-yl]ethyl}-4H-pyrrolo[3,2,1-ij]quinoline]  85%
12. Cc1ccnc(N2CCN(CCc3c(CO)n4c5c(cccc35)CCC4)CC2)c1 [Example 16, 5,6-dihydro-2-hydroxymethyl-1-{2-[4-(4-methylpyridin-2-yl)piperazin-1-yl]ethyl}-4H-pyrrolo[3,2,1-ij]quinoline]  85%
13. Cc1ccnc(N2CCN(CCc3c(C)n4c5c(ccc(C(=O)C(C)C)c35)SCC4)CC2)c1 [Example 91]  86%
14. Cc1ccnc(N2CCN(CCc3c(C)n4c5c(cc(N(C)C)cc35)CCC4)CC2)c1 [Example 81]  86%
15. Cc1ccnc(N2CCN(CCc3c(C)n4c5c(cc(Br)cc35)CCC4)CC2)c1 [Example 9, 8-Bromo-2-methyl-1-{2-[4-(4-methylpyridin-2-yl)piperazin-1-yl]ethyl}-5,6-dihydro-4H-pyrrolo[3,2,1-ij]quinoline]  90%
16. CC(C)=Cc1cc2c3c(c1)c(CCN1CCN(c4cc(C)ccn4)CC1)c(C)n3CCC2 [Example 26, 5,6-Dihydro-2-methyl-8-(2-methylprop-1-enyl)-1-{2-[4-(4-methylpyridin-2-yl)piperazin-1-yl]ethyl}-4H-pyrrolo[3,2,1-ij]quinoline]  95%
17. COc1ccc(C2CCc3cccc4c(CCN5CCN(c6cc(C)ccn6)CC5)c(C)n2c34)cc1 (centres unmarked) [Example 59]  95%
18. Cc1ccnc(N2CCN(CCc3c(C)n4c5c(cc(C(O)C(C)C)cc35)CCC4)CC2)c1 (centres unmarked) [Example 19, 5,6-Dihydro-8-(1-hydroxy-2-methylpropyl)-2-methyl-1-{2-[4-(4-methylpyridin-2-yl)piperazin-1-yl]ethyl}-4H-pyrrolo-[3,2,1-ij]quinoline]  95%
19. Cc1ccnc(N2CCN(CCc3c(C)n4c5c(cc(CC(C)C)cc35)CCC4)CC2)c1 [Example 21, 5,6-Dihydro-2-methyl-8-(2-methylpropyl)-1-{2-[4-(4-methylpyridin-2-yl)piperazin-1-yl]ethyl}-4H-pyrrolo[3,2,1-ij]quinoline]  95%
20. CCCCC1CCc2cccc3c(CCN4CCN(c5cc(C)ccn5)CC4)c(C)n1c23 (centres unmarked) [Example 73, 4-n-butyl-5,6-dihydro-2-methyl-1-{2-[4-(4-methylpyridin-2-yl)piperazin-1-yl]ethyl}-4H-pyrrolo[3,2,1-ij]quinoline]  100%
21. CCCCC1CCc2cc(OC)cc3c(CCN4CCN(c5cc(C)ccn5)CC4)c(C)n1c23 (centres unmarked) [Example 63]  100%
22. CCCCC1CCc2cc(O)cc3c(CCN4CCN(c5cc(C)ccn5)CC4)c(C)n1c23 (centres unmarked) [Example 76]  100%
23. Cc1ccnc(N2CCN(CCc3c(C)n4c5c(cc(C(=O)C(C)C)cc35)CCC4)CC2)c1 [Example 27, 5,6-dihydro-2-methyl-8-(2-methyl-1-oxopropyl)-1-{2-[4-(4-methylpyridin-2-yl)piperazin-1-yl]ethyl}-4H-pyrrolo-[3,2,1-ij]quinoline]  100%
24. Cc1ccnc(N2CCN(CCc3c(C)n4c5c(cc(NC(=O)c6ccccc6)cc35)CCC4)CC2)c1 [Example 25, 8-Benzoylamino-5,6-dihydro-2-methyl-1-{2-[4-(4-methylpyridin-2-yl)piperazin-1-yl]-ethyl}-4H-pyrrolo[3,2,1-ij]quinoline]  100%
25. COc1ccc(C2CCc3cc(OC)cc4c(CCN5CCN(c6cc(C)ccn6)CC5)c(C)n2c34)cc1 (centres unmarked) [Example 65]  100%
26. CCCCC1CCc2cc(C(=O)C(C)C)cc3c(CCN4CCN(c5cc(C)ccn5)CC4)c(C)n1c23 (centres unmarked) [Example 23, 4-n-Butyl-5,6-dihydro-8-(2-methyl-1-oxopropyl)-2-methyl-1-{2-[4-(4-methylpyridin-2-yl)piperazin-1-yl]ethyl}-4H-pyrrolo[3,2,1-ij]quinoline]  100%
27. Cc1ccnc(N2CCN(CCc3c(C)n4c5c(cccc35)CC4C)CC2)c1 (centres unmarked) [Example 33]  100%
28. Cc1ccnc(N2CCN(CCc3c(C)n4c5c(cc(NC(=O)C(C)C)cc35)CCC4)CC2)c1 [Example 60]  100%
29. Cc1ccnc(N2CCN(CCc3c(C)n4c5c(cccc35)CCC4c3ccc(O)cc3)CC2)c1 (centres unmarked) [Example 61]  100%
30. Cc1ccnc(N2CCN(CCc3c(C)n4c5c(cc(N)cc35)CCC4)CC2)c1 [Example 20, 8-Amino-5,6-dihydro-2-methyl-1-{2-[4-(4-methylpyridin-2-yl)piperazin-1-yl]ethyl}-4H-pyrrolo[3,2,1-ij]quinoline]  100%
31. CC(=O)c1cc2c3c(c1)c(CCN1CCN(c4cc(C)ccn4)CC1)c(C)n3CCC2 [Example 67]  100%
32. C=CCCC1CCc2cccc3c(CCN4CCN(c5cc(C)ccn5)CC4)c(C)n1c23 (centres unmarked) [Example 62]  100%
